Values quoted from earlier work in patent publication US20240335441A1, “METHOD OF TREATING POSTTRAUMATIC STRESS DISORDER” (Jazz Pharmaceuticals Ireland Limited, priority 2021, published 2024).

Experiments:
[1] = tested on: healthy volunteers; settings: placebo-controlled
[2] = tested on: men with cannabis use disorder (CUD); settings: compared to placebo

O=C(Nc1cccnn1)N1CCC(=Cc2cccc(Oc3ccc(C(F)(F)F)cn3)c2)CC1 [Compound A, N-Pyridazin-3-yl-4-{3-[5-(trifluoromethyl)-2-pyridyloxy]benzylidene}piperidine-1-carboxamide]
negative affect in response to an aversive stimulus [1]: blunted
recall of fear extinction memory [1]: enhanced
self-reported overall sleep [2]: improved
slow wave sleep as measured by polysomnography [2]: significantly increased
